{"source": "paper PMC3894180", "about": "“GABAA Receptors Containing ρ1 Subunits Contribute to In Vivo Effects of Ethanol in Mice” (PLoS ONE, 2014)", "target": "T1, human GABAA ρ2 receptor (homomeric) (Homo sapiens, UniProt P28476)", "T1 construct": "gene GABRR2; full-length homomeric pentamer; cRNA from pGEMHE vector injected into Xenopus laevis oocytes", "T1 sequence (P28476 21-465)": "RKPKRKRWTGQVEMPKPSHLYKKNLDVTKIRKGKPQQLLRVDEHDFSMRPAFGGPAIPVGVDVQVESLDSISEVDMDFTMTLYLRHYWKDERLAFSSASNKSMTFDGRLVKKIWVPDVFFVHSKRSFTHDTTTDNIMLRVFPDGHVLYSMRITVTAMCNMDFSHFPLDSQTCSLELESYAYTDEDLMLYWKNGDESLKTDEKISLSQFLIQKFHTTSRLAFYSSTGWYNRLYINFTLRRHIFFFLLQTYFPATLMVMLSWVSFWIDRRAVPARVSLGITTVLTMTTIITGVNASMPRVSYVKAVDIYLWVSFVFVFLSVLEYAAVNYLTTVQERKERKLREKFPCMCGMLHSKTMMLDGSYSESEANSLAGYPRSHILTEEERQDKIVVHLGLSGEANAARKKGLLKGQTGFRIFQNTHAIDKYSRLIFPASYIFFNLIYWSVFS", "assay": "two-electrode voltage clamp, Xenopus oocytes", "type": "cell-based", "note": "pEC50: −log10 of the molar value.", "data": [{"smiles": "NCCCC(=O)O", "note": "[GABA]", "values": [{"measurement": "pEC50", "result": 6.05}]}]}
